Data: PubChem BioAssay (NCI)
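Following 48 hours of exposure in 96-well plates, responses at five concentrations were used to interpolate endpoints linearly. At the TGI there is no net growth.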

What was measured:
Experiment in all cases: NCI tumour cell line growth inhibition, 48 h
HOP-62 NSCLC = test system: HOP-62 NSCLC
T-47D breast = test system: T-47D breast
NCI/ADR-RES ovarian = test system: NCI/ADR-RES ovarian
NCI-H226 lung = test system: NCI-H226 lung
MDA-MB-435 = test system: MDA-MB-435
HS 578T breast = test system: HS 578T breast
DU-145 prostate = test system: DU-145 prostate
RPMI-8226 leukemia = test system: RPMI-8226 leukemia
CAKI-1 renal = test system: CAKI-1 renal
PC-3 prostate = test system: PC-3 prostate
MCF7 breast = test system: MCF7 breast
MDA-MB-231 breast = test system: MDA-MB-231 breast
SF-539 CNS = test system: SF-539 CNS
LXFL 529 NSCLC = test system: LXFL 529 NSCLC
KM20L2 colon = test system: KM20L2 colon
SNB-78 CNS = test system: SNB-78 CNS
DMS 273 small cell lung = test system: DMS 273 small cell lung
XF 498 CNS = test system: XF 498 CNS
DLD-1 colon = test system: DLD-1 colon
M19-MEL melanoma = test system: M19-MEL melanoma

SMILES | TGI (HOP-62 NSCLC) [µM] | TGI (T-47D breast) [µM] | TGI (NCI/ADR-RES ovarian) [µM] | TGI (NCI-H226 lung) [µM] | TGI (MDA-MB-435) [µM] | TGI (HS 578T breast) [µM] | TGI (DU-145 prostate) [µM] | TGI (RPMI-8226 leukemia) [µM] | TGI (CAKI-1 renal) [µM] | TGI (PC-3 prostate) [µM] | TGI (MCF7 breast) [µM] | TGI (MDA-MB-231 breast) [µM] | TGI (SF-539 CNS) [µM] | TGI (LXFL 529 NSCLC) [µM] | TGI (KM20L2 colon) [µM] | TGI (SNB-78 CNS) [µM] | TGI (DMS 273 small cell lung) [µM] | TGI (XF 498 CNS) [µM] | TGI (DLD-1 colon) [µM] | TGI (M19-MEL melanoma) [µM]
COP(C)(=O)/C(Cc1ccccc1)=N\O (stereo unspecified) | > 100 | > 100 | > 100 | > 100 | > 100 | > 100 | > 100 | > 100 | > 100 | > 100 | > 100 | > 100 |  |  |  |  |  |  |  | 
CC(C)(C)[Si](C)(C)OCCCC#CCO |  |  |  |  |  |  |  | > 100 | > 100 |  |  |  | > 100 | > 100 | > 100 | > 100 | > 100 | > 100 | > 100 | 
O=P(O)(O)C(CSc1ccccc1)P(=O)(O)O | > 100 |  | > 100 | > 100 |  |  |  | > 100 | > 100 |  | > 100 |  | > 100 |  | > 100 | > 100 | > 100 | > 100 | > 100 | > 100
O=C(NO)c1coc2ccccc2c1=O |  |  |  |  |  |  |  | > 100 | 68.5 |  |  |  | > 100 | > 100 | > 100 | > 100 | > 100 |  | > 100 | 
C=C1c2c(cc3c(c2O)c(=O)c2ccccc2n3C)OC1(C)C |  |  |  | > 100 |  |  |  | > 100 | > 100 |  |  |  | > 100 | > 100 | > 100 | > 100 | > 100 | 57.2 | > 100 | > 100
CC[N+]1(C)CCC(O)(c2ccc(Cl)cc2)C(C(=O)c2ccc(Cl)cc2)C1 (stereo unspecified) | 46.8 | 17.8 | 57.1 | 48.3 | 40.6 | 38.3 | 34.4 |  |  | 33 | 2.71 | 40.5 |  |  |  |  |  |  |  | 
Cc1c(-c2cc3n(n2)C(c2cccs2)C(C#N)=C(c2ccccc2)N3)c(=O)n(-c2ccccc2)n1C (stereo unspecified) | > 100 |  | > 100 | > 100 |  |  |  |  | 84.2 |  | > 100 |  | > 100 |  | > 31.6 | > 100 | > 100 | > 100 | > 100 | > 100
COc1ccc(Cc2nc3cc(C(F)(F)F)ccc3n2CCCN(C)C)cc1 | > 100 | 32.3 | 45.2 | > 100 | 29.7 | 43.1 | 40.4 |  | 56 | 75 | 32.3 | 64.6 |  |  |  |  |  |  |  | 
